Data set [1] can be described thus: Caco-2 membrane permeability evaluation (improved method, 20-24 h pre-incubation, 96-well). Type of data set: in vitro ADME. The note with it: human; for Papp at 180 min: commercially available middle molecular weight compounds; for Papp A→B at 180 min: cyclic peptides, pre-incubation 20-24 h, apical pH 6.0, basal pH 7.4 4% BSA. A general note: Caco-2 cells form a polarised layer with tight junctions and transporters.
Protocol: After Caco-2 cells were cultured on a 96-well transwell for three weeks, DMEM+FaSSIF (1% DMSO)+the compound was added to the Apical side and DMEM was added to the Basal side, and this was pre-incubated under 5% CO2 at 37° C. and 80 rpm for 20 hours to 24 hours. After pre-incubation, the pre-incubation solutions on the Apical and Basal sides were removed by aspiration and washed, a permeability test was initiated by adding FaSSIF/HBSS buffer (pH 6.0) containing the compound to the Apical side and HBSS buffer (pH 7.4) containing 4% BSA to the Basal side. Each well was shaken under 5% CO2, at 37° C. and 80 rpm. […] The permeability coefficient was calculated from the amount of permeation.
More specifically, after Caco-2 cells were cultured on a 96-well transwell for three weeks, DMEM+FaSSIF (1% DMSO)+the compound was added to the Apical side and DMEM was added to the Basal side, and this was pre-incubated at 5% CO2, 37° C., and 80 rpm for 20 hours to 24 hours. After pre-incubation, the pre-incubation solutions on the Apical side and on the Basal side were removed by aspiration and washed, FaSSIF/HBSS buffer (1% DMSO) (pH 6.0) containing the compound was added to the Apical side, and HBSS buffer (4% BSA) (pH 7.4) was added to the Basal side, and membrane permeability assays were initiated. […] From the amount of permeation, the membrane permeability coefficient (Papp) was calculated.

Data set [2] is described as follows: Log D (pH 7.4) measurement, n-octanol/buffer. The note with it: n-octanol/pH 7.4 buffer.
Protocol: (§1) A two-phase separated solution of n-octanol and a pH 7.4 buffer was prepared, a DMSO solution of the drug was added to the prepared two-phase-separated solution. After shaking (room temperature, 1800 rpm, two hours), the solution was centrifuged (3000 rpm, ten minutes), only the buffer fractions were collected, and drug concentrations in the buffer fractions were measured by LC/MS. Log D (pH 7.4) was calculated from the measured drug concentrations.
The conditions of data set [3]: cited from earlier work.
The nature of data set [4]: physchem. The following applies: pH 7.4.
Protocol: as §1
For data set [5], the system named is Caco-2 cells. The note with it: cited from earlier work; for decrease in the concentration on the Apical side: 120 minutes of incubation.

Like-named read-outs stand apart in the source and are kept apart here. Starred links: 1 amine or outer side, 2 acyl side, 3 side chain; linkers in the order of their positions; H or OH if unused. Positions of bridges follow the written chain, without caps; N, C: chain ends. Non-standard residues stand in square brackets, D forms with d. Residues, ends and D or L forms follow the SMILES beside them. *: point of attachment. NMeF = CN[C@@H](Cc1ccccc1)C(=O)O; NMeI = CC[C@H](C)[C@H](NC)C(=O)O; NMeβAla = CN(CCC(=O)[*:2])[*:1]; NMeL = CN[C@@H](CC(C)C)C(=O)O; NMeA = CN[C@@H](C)C(=O)O; Piperidide = C1CCN(*)CC1; Sar = CNCC(=O)O; tBu = CC(C)(C)*

Molecule `C[C@@H]1[C@H](O)[C@@H](C)/C=C/C=C/C=C/C=C/C=C/C=C/C=C/[C@H](O[C@@H]2O[C@H](C)[C@@H](O)[C@H](N)[C@@H]2O)C[C@@H]2O[C@](O)(C[C@@H](O)C[C@@H](O)[C@H](O)CC[C@@H](O)C[C@@H](O)CC(=O)O[C@H]1C)C[C@H](O)[C@H]2C(=O)O` [AmphotericinB] came in with a Papp at 180 min in data set [1] of 0.0736 ×10⁻⁶ cm/s. The logD in data set [2] was found to be 0.11.
The molecule `CC[C@H]1OC(=O)[C@H](C)[C@@H](O[C@H]2C[C@@](C)(OC)[C@@H](O)[C@H](C)O2)[C@H](C)[C@@H](O[C@@H]2O[C@H](C)C[C@H](N(C)C)[C@H]2O)[C@](C)(O)C[C@@H](C)CN(C)[C@H](C)[C@@H](O)[C@]1(C)O` [Azithromycin] came in with a Papp at 180 min in data set [1] of 0.515 ×10⁻⁶ cm/s. In data set [2], this molecule had a logD of 0.62.
For `CC[C@H](C)[C@H]1C(=O)N(C)[C@@H](C)C(=O)N(C)[C@@H](Cc2ccccc2)C(=O)N[C@@H]([C@@H](C)O)C(=O)N(C)[C@@H](Cc2ccccc2)C(=O)N(C)[C@@H](CC(C)C)C(=O)N2CCC[C@H]2C(=O)N[C@H](C(=O)N2CCCCC2)CC(=O)N[C@@H](C)C(=O)NCC(=O)N(C)[C@@H](CC(C)C)C(=O)N1C` [Compound (1)] (AG[NMeL][NMeI][NMeA][NMeF]T[NMeF][NMeL]PD-Piperidide; lactam N-11), in data set [3] (human liver microsomes), the “intrinsic hepatic clearance CLh int” value is on record as 74 μL/min/mg protein. For the same molecule, in data set [4], the logD at 2 h was determined as 5.19. Moreover, the Papp A→B at 180 min in data set [1] is 0.262 ×10⁻⁶ cm/s.
As to `CC[C@H](C)[C@H]1C(=O)N[C@@H](COC(C)(C)C)C(=O)N[C@H](C(=O)N2CCCCC2)CC(=O)N(C)[C@@H](C)C(=O)N(C)[C@@H](Cc2ccccc2)C(=O)N(C)CC(=O)N(C)[C@@H](CC(C)C)C(=O)N[C@@H]([C@@H](C)O)C(=O)N(C)[C@@H](C)C(=O)N(C)[C@@H](CC(C)C)C(=O)N1C` [Compound (2)] ([NMeA][NMeF][Sar][NMeL]T[NMeA][NMeL][NMeI]S(tBu)D-Piperidide; lactam N-10), the “intrinsic hepatic clearance CLh int” value in data set [3] (human liver microsomes) was 48 μL/min/mg protein. The logD at 2 h in data set [4] was found to be 4.43.
Take `CC[C@H](C)[C@H]1C(=O)N[C@H](C(=O)N2CCCCC2)CC(=O)N[C@H](C(C)C)C(=O)N(C)[C@@H](CC(C)C)C(=O)N(C)[C@@H](Cc2ccccc2)C(=O)N(C)[C@@H](C)C(=O)N[C@@H]([C@@H](C)O)C(=O)N(C)CC(=O)N(C)[C@@H](CC(C)C)C(=O)N[C@@H](COC(C)(C)C)C(=O)N1C` [Compound (3)] ([dV][NMeL][NMeF][NMeA]T[Sar][NMeL]S(tBu)[NMeI]D-Piperidide; lactam N-10): the “intrinsic hepatic clearance CLh int” value in data set [3] (human liver microsomes) was 46 μL/min/mg protein. The same molecule showed a logD at 2 h in data set [4] of 4.18. In addition, the Papp A→B at 180 min in data set [1] worked out at 0.249 ×10⁻⁶ cm/s.
Regarding `CC(C)C[C@@H]1NC(=O)[C@H](Cc2ccccc2)N(C)C(=O)[C@H](Cc2ccccc2)N(C)C(=O)[C@H](CC(C)C)NC(=O)[C@H](C)N(C)C(=O)[C@H]([C@@H](C)O)NC(=O)[C@H](C)N(C)C(=O)C[C@@H](C(=O)N2CCCCC2)NC(=O)[C@H](CC(C)C)N(C)C1=O` [Compound (4)] ([NMeA]T[NMeA]L[NMeF][NMeF]L[NMeL]D-Piperidide; lactam N-9), in data set [3] (human liver microsomes), the “intrinsic hepatic clearance CLh int” value is reported as 189 μL/min/mg protein. For the same molecule, the Papp A→B at 180 min in data set [1] is 4.14 ×10⁻⁶ cm/s. Besides, in data set [2], the logD at 2 h was 5.17.
On to `CC[C@H](C)[C@H]1C(=O)N[C@H](C(=O)N2CCCCC2)CC(=O)N[C@H](C(C)C)C(=O)N(C)[C@@H](Cc2ccccc2)C(=O)N(C)[C@@H](CC(C)C)C(=O)N[C@@H]([C@@H](C)O)C(=O)N(C)CC(=O)N(C)[C@@H](CC(C)C)C(=O)N[C@@H](COC(C)(C)C)C(=O)N1C` [Compound (5)] ([dV][NMeF][NMeL]T[Sar][NMeL]S(tBu)[NMeI]D-Piperidide; lactam N-9), for which the “intrinsic hepatic clearance CLh int” value in data set [3] (human liver microsomes) is 58 μL/min/mg protein. In data set [1], this molecule yielded a Papp A→B at 180 min of 1.85 ×10⁻⁶ cm/s. This molecule also came in with a logD at 2 h in data set [2] of 4.31.
For the molecule `CC(C)C[C@H]1C(=O)N(C)[C@@H](CC(C)C)C(=O)N[C@H](C(=O)N2CCCCC2)CC(=O)N(C)CCC(=O)N(C)[C@@H](Cc2ccccc2)C(=O)N[C@@H]([C@@H](C)O)C(=O)N(C)CC(=O)N[C@@H](COC(C)(C)C)C(=O)N1C` [Compound (6)] ([NMeβAla][NMeF]T[Sar]S(tBu)[NMeL][NMeL]D-Piperidide; lactam N-8), the “intrinsic hepatic clearance CLh int” value in data set [3] (human, microsomes) is on record as 86 μL/min/mg protein. This molecule also gave a logD at 2 h in data set [4] of 3.19.
The molecule `C[C@H]1O[C@@H](O[C@H]2[C@@H](O)C[C@H](O[C@H]3[C@@H](O)C[C@H](O[C@H]4CC[C@@]5(C)[C@H](CC[C@@H]6[C@@H]5C[C@@H](O)[C@]5(C)[C@@H](C7=CC(=O)OC7)CC[C@]65O)C4)O[C@@H]3C)O[C@@H]2C)C[C@H](O)[C@@H]1O` [Digoxin] had a Papp at 180 min in data set [1] of 0.264 ×10⁻⁶ cm/s.
`CC[C@H]1OC(=O)[C@H](C)[C@@H](O[C@H]2C[C@@](C)(OC)[C@@H](O)[C@H](C)O2)[C@H](C)[C@@H](O[C@@H]2O[C@H](C)C[C@H](N(C)C)[C@H]2O)[C@](C)(O)C[C@@H](C)C(=O)[C@H](C)[C@@H](O)[C@]1(C)O` [Erythromycin] came in with a Papp at 180 min in data set [1] of 0.382 ×10⁻⁶ cm/s. Moreover, the log distribution coefficient (logD) in data set [2] was 0.89.
In turn, `CCC(C)n1ncn(-c2ccc(N3CCN(c4ccc(OCC5COC(Cn6cncn6)(c6ccc(Cl)cc6Cl)O5)cc4)CC3)cc2)c1=O` (stereo not drawn) [Itraconazole] registered a Papp at 180 min in data set [1] of 1.06 ×10⁻⁶ cm/s. In addition, the logD in data set [2] was 4.29.
For `CC(=O)O[C@H]1C(=O)[C@@]2(C)[C@H]([C@H](OC(=O)c3ccccc3)[C@]3(O)C[C@H](OC(=O)[C@H](O)[C@@H](NC(=O)c4ccccc4)c4ccccc4)C(C)=C1C3(C)C)[C@]1(OC(C)=O)CO[C@@H]1C[C@@H]2O` [Paclitaxel], in that order: 0.138 ×10⁻⁶ cm/s and 3.36.
Take `CO[C@H]1C[C@@H]2CC[C@@H](C)[C@@](O)(O2)C(=O)C(=O)N2CCCC[C@H]2C(=O)O[C@H]([C@H](C)C[C@@H]2CC[C@@H](O)[C@H](OC)C2)CC(=O)[C@H](C)/C=C(\C)[C@@H](O)[C@@H](OC)C(=O)[C@H](C)C[C@H](C)/C=C/C=C/C=C/1C` [Rapamycin]: the Papp at 180 min in data set [1] was determined as 1.84 ×10⁻⁶ cm/s. For the same molecule, the logD in data set [2] worked out at 4.36.
`CO[C@H]1/C=C/O[C@@]2(C)Oc3c(C)c(O)c4c(c3C2=O)C2=NC3(CCN(CC(C)C)CC3)NC2=C(NC(=O)/C(C)=C\C=C\[C@H](C)[C@H](O)[C@@H](C)[C@@H](O)[C@@H](C)[C@H](OC(C)=O)[C@@H]1C)C4=O` [Rifabutin] yielded a Papp at 180 min in data set [1] of 1.08 ×10⁻⁶ cm/s. This molecule also yielded a logD in data set [2] of 3.88.
In data set [1], `CO[C@H]1/C=C/O[C@@]2(C)Oc3c(C)c(O)c4c(O)c(c(/C=N/N5CCN(C)CC5)c(O)c4c3C2=O)NC(=O)/C(C)=C\C=C\[C@H](C)[C@H](O)[C@@H](C)[C@@H](O)[C@@H](C)[C@H](OC(C)=O)[C@@H]1C` [Rifampicin] had a Papp at 180 min of 1.73 ×10⁻⁶ cm/s. In data set [2], this molecule had a logD of 1.61.
As to `CO[C@H]1/C=C/O[C@@]2(C)Oc3c(C)c(O)c4c(O)c(c(/C=N/N5CCN(C6CCCC6)CC5)c(O)c4c3C2=O)NC(=O)/C(C)=C\C=C\[C@H](C)[C@H](O)[C@@H](C)[C@@H](O)[C@@H](C)[C@H](OC(C)=O)[C@@H]1C` [Rifapentine], the Papp at 180 min in data set [1] was determined as 5.12 ×10⁻⁶ cm/s. In addition, in data set [2], the logD is 2.45.
In data set [1], `CC(C)c1nc(CN(C)C(=O)N[C@H](C(=O)N[C@@H](Cc2ccccc2)C[C@H](O)[C@H](Cc2ccccc2)NC(=O)OCc2cncs2)C(C)C)cs1` [Ritonavir] returned a Papp at 180 min of 1.74 ×10⁻⁶ cm/s. The logD in data set [2] came out at 4.29.
`CC[C@H]1OC(=O)[C@H](C)[C@@H](O[C@H]2C[C@@](C)(OC)[C@@H](O)[C@H](C)O2)[C@H](C)[C@@H](O[C@@H]2O[C@H](C)C[C@H](N(C)C)[C@H]2O)[C@](C)(O)C[C@@H](C)/C(=N\OCOCCOC)[C@H](C)[C@@H](O)[C@]1(C)O` [Roxithromycin] showed a Papp at 180 min in data set [1] of 0.108 ×10⁻⁶ cm/s. This molecule returned a logD in data set [2] of 2.04.
As for `C=CC[C@@H]1/C=C(\C)C[C@H](C)C[C@H](OC)[C@H]2O[C@@](O)(C(=O)C(=O)N3CCCC[C@H]3C(=O)O[C@H](/C(C)=C/[C@@H]3CC[C@@H](O)[C@H](OC)C3)[C@H](C)[C@@H](O)CC1=O)[C@H](C)C[C@@H]2OC` [Tacrolimus], the Papp at 180 min in data set [1] was determined as 2.48 ×10⁻⁶ cm/s. The molecule also came in with a logD in data set [2] of 4.19.
As to `CC[C@H]1OC(=O)[C@H](C)C(=O)[C@H](C)[C@@H](O[C@@H]2O[C@H](C)C[C@H](N(C)C)[C@H]2O)[C@](C)(OC)C[C@@H](C)C(=O)[C@H](C)[C@H]2N(CCCCn3cnc(-c4cccnc4)c3)C(=O)O[C@]12C` [Telithromycin], the Papp at 180 min in data set [1] is 0.319 ×10⁻⁶ cm/s. This molecule also displayed a logD in data set [2] of 2.1.
Take `CCC1=C[C@@H]2CN(C1)Cc1c([nH]c3ccccc13)[C@@](C(=O)OC)(c1cc3c(cc1OC)N(C)[C@H]1[C@@](O)(C(=O)OC)[C@H](OC(C)=O)[C@]4(CC)C=CCN5CC[C@]31[C@@H]54)C2` [Vinorelbine]: the Papp at 180 min in data set [1] came out at 0.0903 ×10⁻⁶ cm/s. Also, the logD in data set [2] was 2.82.
On to `COCCc1ccc(OCC(O)CNC(C)C)cc1` (stereo not drawn) [metoprolol], for which, in data set [5], the “decrease in the concentration on the Apical side” value is recorded as “approximately 20%”.
Consider `CC(C)NCC(O)COc1cccc2ccccc12` (stereo not drawn) [propranolol], for which, in data set [5], the “decrease in the concentration on the Apical side” value was “approximately 40%” and the “added drug distributed in the cells after completion of incubation” value is reported as “approximately 8%”.

What is called Papp is the rate of passage across a membrane or cell layer, normalised by area and donor concentration. Read a low Papp as slow passage. Broadly, the logD is the decadic logarithm of the distribution of all forms, ionised or not, between an organic phase and buffer at a given pH. One may read the Papp A→B as how fast a substance crosses the layer from the apical side. Low values mean poor permeation, high ones ready permeation.

The values are drawn from patent US20220096379A1, “SELF-EMULSIFYING DRUG FORMULATION FOR IMPROVING MEMBRANE PERMEABILITY OF COMPOUND” (Chugai Seiyaku Kabushiki Kaisha, priority 2016, published 2022).
